Measurements taken from PubChem BioAssay AID2060883 (Molecular Pharmacology Branch, DTP, NCI, 2025).

Tested on: 843782-103-R-J1-PDC complex spheroid viability
Assay: Anticancer human tumor 843782-103-R-J1-PDC patient-derived lung adenocarcinoma cell line growth inhibition [RAS]
Conditions: for IC50: curve of first compound; for viability, T/C: stronger effect = lower value
Procedure, shortened: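 Agents were tested in combination matrices in half-log decrements from a top concentration at or near clinical Cmax (10 microM if undetermined). Targets were multi-cell spheroids of tumour lines plus HUVEC and MSC stromal cells.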
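Also: viability read after seven days of compound exposure.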

## NC1c2ccccc2OC12CCN(c1cnc3c(N4CCCc5ncccc54)n[nH]c3n1)CC2 (stereo unspecified) + CCn1c(-c2cc(N3CCN(C)CC3)cnc2C(C)OC)c2c3cc(ccc31)-c1csc(n1)CC(NC(=O)C1CC1C)C(=O)N1CCCC(N1)C(=O)OCC(C)(C)C2
Second compound 0.000949 µM
  IC50: < 31.6 nM
Second compound 0.003 µM
  IC50: < 31.6 nM
Second compound 0.00949 µM
  IC50: < 31.6 nM
Second compound 0.03 µM
  IC50: < 31.6 nM
Second compound 0.0949 µM
  IC50: < 31.6 nM
Second compound 0.3 µM
  IC50: < 31.6 nM
Second compound 0.000949 µM, first compound 0.0316 µM
  viability, T/C: 39.3%
Second compound 0.000949 µM, first compound 0.1 µM
  viability, T/C: 25.7%
Second compound 0.000949 µM, first compound 0.316 µM
  viability, T/C: 20%
Second compound 0.000949 µM, first compound 1 µM
  viability, T/C: 19.5%
Second compound 0.000949 µM, first compound 3.16 µM
  viability, T/C: 16.9%
Second compound 0.000949 µM, first compound 10 µM
  viability, T/C: 12.2%
Second compound 0.003 µM, first compound 0.0316 µM
  viability, T/C: 27.1%
Second compound 0.003 µM, first compound 0.1 µM
  viability, T/C: 19.2%
Second compound 0.003 µM, first compound 0.316 µM
  viability, T/C: 17.9%
Second compound 0.003 µM, first compound 1 µM
  viability, T/C: 16.2%
Second compound 0.003 µM, first compound 3.16 µM
  viability, T/C: 13.6%
Second compound 0.003 µM, first compound 10 µM
  viability, T/C: 10.3%
Second compound 0.00949 µM, first compound 0.0316 µM
  viability, T/C: 24.2%
Second compound 0.00949 µM, first compound 0.1 µM
  viability, T/C: 15.6%
Second compound 0.00949 µM, first compound 0.316 µM
  viability, T/C: 17%
Second compound 0.00949 µM, first compound 1 µM
  viability, T/C: 15%
Second compound 0.00949 µM, first compound 3.16 µM
  viability, T/C: 12.8%
Second compound 0.00949 µM, first compound 10 µM
  viability, T/C: 8.86%
Second compound 0.03 µM, first compound 0.0316 µM
  viability, T/C: 16.8%
Second compound 0.03 µM, first compound 0.1 µM
  viability, T/C: 14.8%
Second compound 0.03 µM, first compound 0.316 µM
  viability, T/C: 12.6%
Second compound 0.03 µM, first compound 1 µM
  viability, T/C: 12.7%
Second compound 0.03 µM, first compound 3.16 µM
  viability, T/C: 14.2%
Second compound 0.03 µM, first compound 10 µM
  viability, T/C: 9.33%
Second compound 0.0949 µM, first compound 0.0316 µM
  viability, T/C: 18.1%
Second compound 0.0949 µM, first compound 0.1 µM
  viability, T/C: 14%
Second compound 0.0949 µM, first compound 0.316 µM
  viability, T/C: 15.2%
Second compound 0.0949 µM, first compound 1 µM
  viability, T/C: 13.8%
Second compound 0.0949 µM, first compound 3.16 µM
  viability, T/C: 12.2%
Second compound 0.0949 µM, first compound 10 µM
  viability, T/C: 9.38%
Second compound 0.3 µM, first compound 0.0316 µM
  viability, T/C: 13.6%
Second compound 0.3 µM, first compound 0.1 µM
  viability, T/C: 13.6%
Second compound 0.3 µM, first compound 0.316 µM
  viability, T/C: 13.6%
Second compound 0.3 µM, first compound 1 µM
  viability, T/C: 12.8%
Second compound 0.3 µM, first compound 3.16 µM
  viability, T/C: 11.7%
Second compound 0.3 µM, first compound 10 µM
  viability, T/C: 7.8%

## CCc1c2c(nc3ccc(O)cc13)-c1cc3c(c(=O)n1C2)COC(=O)[C@]3(O)CC + CCn1c(-c2cccnc2C(C)OC)c2c3cc(ccc31)N1CCOC(CC(NC(=O)C(C(C)C)N(C)C(=O)C3(F)CCN(C(=O)C#CC(C)(C)N(C)C)CC3)C(=O)N3CCCC(N3)C(=O)OCC(C)(C)C2)C1
Second compound 0.000949 µM
  IC50: 1.49 nM
Second compound 0.003 µM
  IC50: 1.45 nM
Second compound 0.00949 µM
  IC50: 1.26 nM
Second compound 0.03 µM
  IC50: 1.27 nM
Second compound 0.0949 µM
  IC50: 1.46 nM
Second compound 0.3 µM
  IC50: 1.23 nM
Second compound 0.000949 µM, first compound 0.000949 µM
  viability, T/C: 67.3%
Second compound 0.000949 µM, first compound 0.003 µM
  viability, T/C: 23.5%
Second compound 0.000949 µM, first compound 0.00949 µM
  viability, T/C: 6.26%
Second compound 0.000949 µM, first compound 0.03 µM
  viability, T/C: 2.82%
Second compound 0.000949 µM, first compound 0.0949 µM
  viability, T/C: 1.64%
Second compound 0.000949 µM, first compound 0.3 µM
  viability, T/C: 1.49%
Second compound 0.003 µM, first compound 0.000949 µM
  viability, T/C: 63.3%
Second compound 0.003 µM, first compound 0.003 µM
  viability, T/C: 27%
Second compound 0.003 µM, first compound 0.00949 µM
  viability, T/C: 5.6%
Second compound 0.003 µM, first compound 0.03 µM
  viability, T/C: 2.52%
Second compound 0.003 µM, first compound 0.0949 µM
  viability, T/C: 1.9%
Second compound 0.003 µM, first compound 0.3 µM
  viability, T/C: 1.58%
Second compound 0.00949 µM, first compound 0.000949 µM
  viability, T/C: 59.1%
Second compound 0.00949 µM, first compound 0.003 µM
  viability, T/C: 22.9%
Second compound 0.00949 µM, first compound 0.00949 µM
  viability, T/C: 6.03%
Second compound 0.00949 µM, first compound 0.03 µM
  viability, T/C: 2.26%
Second compound 0.00949 µM, first compound 0.0949 µM
  viability, T/C: 1.84%
Second compound 0.00949 µM, first compound 0.3 µM
  viability, T/C: 2.05%
Second compound 0.03 µM, first compound 0.000949 µM
  viability, T/C: 59.7%
Second compound 0.03 µM, first compound 0.003 µM
  viability, T/C: 21.9%
Second compound 0.03 µM, first compound 0.00949 µM
  viability, T/C: 3.99%
Second compound 0.03 µM, first compound 0.03 µM
  viability, T/C: 2.11%
Second compound 0.03 µM, first compound 0.0949 µM
  viability, T/C: 1.92%
Second compound 0.03 µM, first compound 0.3 µM
  viability, T/C: 1.55%
Second compound 0.0949 µM, first compound 0.000949 µM
  viability, T/C: 68.9%
Second compound 0.0949 µM, first compound 0.003 µM
  viability, T/C: 18.6%
Second compound 0.0949 µM, first compound 0.00949 µM
  viability, T/C: 3.32%
Second compound 0.0949 µM, first compound 0.03 µM
  viability, T/C: 1.45%
Second compound 0.0949 µM, first compound 0.0949 µM
  viability, T/C: 1.1%
Second compound 0.0949 µM, first compound 0.3 µM
  viability, T/C: 1.93%
Second compound 0.3 µM, first compound 0.000949 µM
  viability, T/C: 59.3%
Second compound 0.3 µM, first compound 0.003 µM
  viability, T/C: 17.8%
Second compound 0.3 µM, first compound 0.00949 µM
  viability, T/C: 3.68%
Second compound 0.3 µM, first compound 0.03 µM
  viability, T/C: 2.01%
Second compound 0.3 µM, first compound 0.0949 µM
  viability, T/C: 1.36%
Second compound 0.3 µM, first compound 0.3 µM
  viability, T/C: 1.25%

## C=CC(=O)Nc1cc(Nc2nccc(-c3cn(C)c4ccccc34)n2)c(OC)cc1N(C)CCN(C)C + C=CC(=O)N1CCN(c2nc(OCC3CCCN3C)nc3c(F)c(-c4nc(N)cc(C)c4C(F)(F)F)c(Cl)cc23)C(C)C1
Second compound 0.00316 µM
  IC50: 320 nM
Second compound 0.01 µM
  IC50: 352 nM
Second compound 0.0316 µM
  IC50: 539 nM
Second compound 0.1 µM
  IC50: 377 nM
Second compound 0.316 µM
  IC50: 361 nM
Second compound 1 µM
  IC50: 310 nM
Second compound 0.00316 µM, first compound 0.00316 µM
  viability, T/C: 93.5%
Second compound 0.00316 µM, first compound 0.01 µM
  viability, T/C: 90.7%
Second compound 0.00316 µM, first compound 0.0316 µM
  viability, T/C: 80.1%
Second compound 0.00316 µM, first compound 0.1 µM
  viability, T/C: 82.9%
Second compound 0.00316 µM, first compound 0.316 µM
  viability, T/C: 49.8%
Second compound 0.00316 µM, first compound 1 µM
  viability, T/C: 38.9%
Second compound 0.01 µM, first compound 0.00316 µM
  viability, T/C: 91.6%
Second compound 0.01 µM, first compound 0.01 µM
  viability, T/C: 84.5%
Second compound 0.01 µM, first compound 0.0316 µM
  viability, T/C: 83.5%
Second compound 0.01 µM, first compound 0.1 µM
  viability, T/C: 76.4%
Second compound 0.01 µM, first compound 0.316 µM
  viability, T/C: 50.6%
Second compound 0.01 µM, first compound 1 µM
  viability, T/C: 38.1%
Second compound 0.0316 µM, first compound 0.00316 µM
  viability, T/C: 91.1%
Second compound 0.0316 µM, first compound 0.01 µM
  viability, T/C: 88.2%
Second compound 0.0316 µM, first compound 0.0316 µM
  viability, T/C: 74.4%
Second compound 0.0316 µM, first compound 0.1 µM
  viability, T/C: 67%
Second compound 0.0316 µM, first compound 0.316 µM
  viability, T/C: 51.5%
Second compound 0.0316 µM, first compound 1 µM
  viability, T/C: 46.8%
Second compound 0.1 µM, first compound 0.00316 µM
  viability, T/C: 87.8%
Second compound 0.1 µM, first compound 0.01 µM
  viability, T/C: 84.5%
Second compound 0.1 µM, first compound 0.0316 µM
  viability, T/C: 90.4%
Second compound 0.1 µM, first compound 0.1 µM
  viability, T/C: 75.8%
Second compound 0.1 µM, first compound 0.316 µM
  viability, T/C: 53.4%
Second compound 0.1 µM, first compound 1 µM
  viability, T/C: 34.1%
Second compound 0.316 µM, first compound 0.00316 µM
  viability, T/C: 87%
Second compound 0.316 µM, first compound 0.01 µM
  viability, T/C: 94%
Second compound 0.316 µM, first compound 0.0316 µM
  viability, T/C: 77.2%
Second compound 0.316 µM, first compound 0.1 µM
  viability, T/C: 70.2%
Second compound 0.316 µM, first compound 0.316 µM
  viability, T/C: 52%
Second compound 0.316 µM, first compound 1 µM
  viability, T/C: 35.5%
Second compound 1 µM, first compound 0.00316 µM
  viability, T/C: 90.3%
Second compound 1 µM, first compound 0.01 µM
  viability, T/C: 78.7%
Second compound 1 µM, first compound 0.0316 µM
  viability, T/C: 84.9%
Second compound 1 µM, first compound 0.1 µM
  viability, T/C: 71%
Second compound 1 µM, first compound 0.316 µM
  viability, T/C: 49.7%
Second compound 1 µM, first compound 1 µM
  viability, T/C: 32.5%
